Laboratory results reported in patent publication US12577231B2, “Androgen receptor PROTACS” (GlaxoSmithKline Intellectual Property Development Limited, priority 2023, dated 2026).
Where a chain is given by its changes, count along the chain named.

Legend:
[1] = molecular target: T1, Androgen Receptor protein in human LnCaP cells (Homo sapiens, UniProt P10275, T878A); assay: Androgen Receptor Degradation Assay (Nano-Glo HiBiT, LnCaP cells); type: cell-based; details: 18 h, HiBiT-tagged AR LnCaP cells, 18 h incubation, fitted curve asymptote maximum of degradation, read-out: mean asymptote max
T1 construct: the AR gene was modified, using CRISPR/Cas9 editing, so the expressed AR protein included an 11 amino acid HiBiT tag; endogenous in cells; host or cells: clonal LnCaP derived cell line, endogenous AR gene edited by CRISPR/Cas9
T1 sequence (P10275 1-920 T878A): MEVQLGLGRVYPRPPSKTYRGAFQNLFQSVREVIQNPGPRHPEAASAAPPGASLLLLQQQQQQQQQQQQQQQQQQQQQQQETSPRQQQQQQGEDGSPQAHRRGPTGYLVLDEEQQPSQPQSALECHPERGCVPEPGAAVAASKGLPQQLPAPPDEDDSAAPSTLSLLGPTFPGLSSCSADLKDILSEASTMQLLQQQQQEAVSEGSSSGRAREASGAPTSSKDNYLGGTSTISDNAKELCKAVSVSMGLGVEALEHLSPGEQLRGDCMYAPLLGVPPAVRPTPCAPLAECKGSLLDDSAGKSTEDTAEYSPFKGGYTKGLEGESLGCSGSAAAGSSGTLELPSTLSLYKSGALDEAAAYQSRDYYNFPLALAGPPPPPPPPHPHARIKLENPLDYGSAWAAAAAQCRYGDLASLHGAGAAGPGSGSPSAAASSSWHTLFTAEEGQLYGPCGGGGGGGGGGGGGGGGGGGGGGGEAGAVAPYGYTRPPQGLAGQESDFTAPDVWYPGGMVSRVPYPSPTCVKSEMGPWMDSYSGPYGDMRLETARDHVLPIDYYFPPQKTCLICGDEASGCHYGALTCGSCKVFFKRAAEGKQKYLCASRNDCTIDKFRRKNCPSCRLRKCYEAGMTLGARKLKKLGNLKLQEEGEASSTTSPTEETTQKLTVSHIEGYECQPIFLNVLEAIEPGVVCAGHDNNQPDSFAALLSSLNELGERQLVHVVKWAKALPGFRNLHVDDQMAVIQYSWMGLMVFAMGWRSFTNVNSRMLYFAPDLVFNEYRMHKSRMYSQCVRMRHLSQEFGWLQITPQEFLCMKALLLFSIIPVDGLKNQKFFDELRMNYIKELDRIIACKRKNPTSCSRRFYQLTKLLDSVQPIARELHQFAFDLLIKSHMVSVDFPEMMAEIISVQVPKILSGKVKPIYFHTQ
Description: Degradation of Androgen Receptor protein in human LnCaP cells treated with PROTACs was quantified using the Nano-Glo® HiBiT Lytic Detection System (Promega) in 384 well assay plate format. A clonal LnCaP derived cell line was first established in which the AR gene was modified, using CRISPR/Cas9 editing, so the expressed AR protein included an 11 amino acid HiBiT tag at its amino-terminus. 10 mM DMSO stock solutions of PROTACs were prepared and diluted across an 11 concentration, 3 fold increment range, and 25 nL dispensed into a white opaque bottomed 384 well assay plate (Thermofisher) using an acoustic ECHO dispenser (Labcyte). Cells were grown in cell culture medium (RPMI 1640 supplemented with 15% FBS, penicillin 50U/mL and streptomycin 50 ug/mL (Thermofisher)). For the assay, cells were detached from flask and resuspended with assay medium (FluoroBrite™ DMEM supplemented with 10% heat inactivated FBS, penicillin 50U/mL and streptomycin 50 ug/mL (Thermofisher)). The cell suspension was centrifuged at 400 g for 5 min and the pellet resuspended in assay medium. 25 μL of cell suspension containing 10,000 cells was dispensed into each well of the assay plate containing a serial dilution of test compounds, which was then incubated for 18 h at 37° C./5% CO2. Control wells were included on each assay plate, with assay medium without cells being the no AR remaining 100% effect control, and cells treated with DMSO vehicle only, without PROTAC, the 0% effect control. 25 μL of Nano-Glo® HiBiT lysis buffer supplemented with LgBiT protein and Nano-Glo® substrate (Promega) was added to each well and the plate shaken at 500 rpm for 10 min at room temperature. The intensity of luminescence was measured using a PHERAstar microplate reader (BMG Labtech) and the % AR protein remaining in each well calculated by normalising the raw luminescence value to the above control wells. Parameters corresponding to the potency and efficacy estimates of the PROTACs were obtained from these normalised luminescence values using software (IDBS ActivityBase). These included the DC50 (concentration at which 50% of protein was degraded in M) and the Dmax (maximal degradation, in %) estimates. Two versions of the DC50, called relative DC50 and absolute DC50, were generated. These are the inflection point of a fitted 4 parameter sigmoidal response curve and the interpolated concentration of PROTAC corresponding to 50% of the protein being degraded, respectively. The corresponding pDC50 is reported as −log10(relative […]). The Dmax parameter was the maximum experimentally observed degradation and the asymptote max parameter the fitted response curve asymptote maximum.

[2] = molecular target: T2, Androgen Receptor dual T878A/L702H mutant protein (Homo sapiens, UniProt P10275, L702H/T878A); assay: Dual Mutant (T878A/L702H) Androgen Receptor Degradation Assay (HTRF, MDA-PCa-2b cells); type: cell-based; details: 18 h, 18 h incubation, read-out: mean asymptote max
T2 construct: host or cells: MDA-PCa-2b
T2 sequence (P10275 1-920 L702H/T878A): T1 sequence (P10275 1-920 T878A) with L702H
Description: Degradation of Androgen Receptor dual T878A/L702H mutant protein in human MDA-PCa-2b (ATCC) cells treated with PROTACs was quantified using the HTRF Human Androgen Receptor Detection Kit (PerkinElmer) in 384 well assay plate format. 10 mM DMSO (Sigma-Aldrich) stock solutions of PROTACs were prepared and diluted across an 11 concentration, 3-fold increment range, and 25 nL dispensed into a white opaque bottomed 384 well assay plate (Thermofisher) using an acoustic ECHO dispenser (Labcyte). Cells were cultured in growth medium (BRFF—HPC-1 (Athena ES) supplemented with 20% FBS (Gibco), penicillin 50U/mL and streptomycin 50 μg/mL (Gibco, #15140-122)) in collagen I or poly-D-lysine coated T175 flasks (Corning, #356487 or #356539, respectively). For the assay, cells were harvested from the flask, centrifuged at 200 g for 5 min and then resuspended in the growth medium. 25 μl of cell suspension containing 10,000 cells was dispensed into each well of the assay plate containing the test compounds, which was then incubated for 18 h at 37° C./5% CO2. Control wells were included on each assay plate, with assay medium without cells being the no AR remaining 100% effect control, and cells treated with DMSO vehicle only, without PROTAC, the 0% effect control. After 18 h incubation 8 μl of supplemented lysis buffer from HTRF kit was added to each well and the plate shaken at 500 rpm for 1 h at room temperature. 8 μl of antibody mix in Detection buffer from HTRF kit was added to each well and the plate was incubated for 2 h in dark at mom temperature. The fluorescence was measured at both 620 nm and 665 nm using an excitation wavelength of 337 nm with a PHERAstar microplate reader (BMG Labtech) and the % AR protein remaining in each well was calculated by normalising the HTRF ratio (665 nm signal/620 nm signal) value to the control wells mentioned above. Parameters corresponding to the potency and efficacy estimates of the PROTACs were obtained from these normalised values using curve fitting software (IDBS ActivityBase). These included the DC50 and the Dmax estimates. Two versions of the DC50, called relative DC50 and absolute DC50, were typically generated. These are the inflection point of a fitted 4 parameter sigmoidal response curve and the interpolated concentration of PROTAC corresponding to 50% of the protein being degraded, respectively. The Dmax parameter was the maximum experimentally observed degradation and the asymptote max parameter the fitted response curve asymptote maximum.

Row | SMILES | Dmax [1] [%] | Dmax [2] [%]
1 | COc1cc(O[C@H]2C(C)(C)[C@H](NC(=O)c3ccc(N4CCC(CN5CCC(n6ncc7c(N8CCC(=O)NC8=O)ccnc76)CC5)CC4)c(F)c3)C2(C)C)ccc1C#N [Example 19, N-((1r,3r)-3-(4-Cyano-3-methoxyphenoxy)-2,2,4,4-tetramethylcyclobutyl)-4-(4-((4-(4-(2,4-dioxotetrahydropyrimidin-1(2H)-yl)-1H-pyrazolo[3,4-b]pyridin-1-yl)piperidin-1-yl)methyl)piperidin-1-yl)-3-fluorobenzamide] | ≥ 50 | 
2 | Cc1ccc2c(O[C@H]3C(C)(C)[C@H](NC(=O)c4ccc(N5CCC(CN6CCC(n7ncc8c(N9CCC(=O)NC9=O)cccc87)CC6)CC5)c(F)c4)C3(C)C)ccc(C#N)c2n1 [Example 7, N-((1r,3r)-3-((8-cyano-2-methylquinolin-5-yl)oxy)-2,2,4,4-tetramethylcyclobutyl)-4-(4-((4-(4-(2,4-dioxotetrahydropyrimidin-1(2H)-yl)-1H-indazol-1-yl)piperidin-1-yl)methyl)piperidin-1-yl)-3-fluorobenzamide] |  | ≥ 50
3 | CC1(C)[C@H](NC(=O)c2ccc(N3CCC(CN4CCC(n5ncc6c(N7CCC(=O)NC7=O)cccc65)CC4)CC3)cc2)C(C)(C)[C@H]1Oc1ccc(C#N)c2ncccc12 [Example 29, N-((1r,3r)-3-((8-Cyanoquinolin-5-yl)oxy)-2,2,4,4-tetramethylcyclobutyl)-4-(4-((4-(4-(2,4-dioxotetrahydropyrimidin-1(2H)-yl)-1H-indazol-1-yl)piperidin-1-yl)methyl)piperidin-1-yl)benzamide] |  | ≥ 50
4 | COc1cc(O[C@H]2C(C)(C)[C@H](NC(=O)c3ccc(N4CCC(CN5CCC(n6ncc7c(N8CCC(=O)NC8=O)cc(F)cc76)CC5)CC4)c(F)c3)C2(C)C)ccc1C#N [Example 24, N-((1r,3r)-3-(4-Cyano-3-methoxyphenoxy)-2,2,4,4-tetramethylcyclobutyl)-4-(4-((4-(4-(2,4-dioxotetrahydropyrimidin-1(2H)-yl)-6-fluoro-1H-indazol-1-yl)piperidin-1-yl)methyl)piperidin-1-yl)-3-fluorobenzamide] |  | ≥ 50
5 | CC1(C)[C@H](NC(=O)c2ccc(N3CCC(CN4CCC(n5ncc6c(N7CCC(=O)NC7=O)cccc65)CC4)CC3)c(F)c2)C(C)(C)[C@H]1Oc1ccc(C#N)c(Cl)c1 [Example 1, N-((1r,3r)-3-(3-Chloro-4-cyanophenoxy)-2,2,4,4-tetramethylcyclobutyl)-4-(4-((4-(4-(2,4-dioxotetrahydropyrimidin-1(2H)-yl)-1H-indazol-1-yl)piperidin-1-yl)methyl)piperidin-1-yl)-3-fluorobenzamide] |  | ≥ 50
